Experimental findings from the METLIN SMRT retention time set (Domingo-Almenara et al. 2019) are described below.

The structures appear in SMILES notation.

The data set is described as follows: gradient 5% acetonitrile 3 min, to 50% in 2 min, to 85% in 15 min, held 3 min, 100 µL/min. The conditions noted are these: column: Zorbax Extend-C18 2.1 x 50 mm; eluents: water / acetonitrile, 0.1% formic acid. The procedure, abridged:
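Retention times of pure standards were taken from adduct peaks that were selected by computer and manually inspected. Over 3 months, mixtures of ~100 molecules were run by HPLC–quadrupole time-of-flight mass spectrometry in positive and negative ionization mode. The Zorbax Extend-C18 column (2.1 × 50 mm, 1.8 μm) ran at 100 μL/min in water and acetonitrile, each containing 0.1% formic acid, with 40 μL dead volume and 900 μL dwell volume.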
Compound `Cc1cc(C(=O)Nc2ccc(Cl)cc2)nc2ccnn12` came in with an RP-LC retention time of 1010 s.
The same measure for `CC1CC(=O)Nc2ccccc2N1C(=O)COc1ccc(Cl)cc1Cl` (stereo unspecified): 844 s; for `COc1ccc(NC(=O)N2CCC3(C2)C(=O)N(C)c2ccccc23)cc1OC` (stereo unspecified): 808 s; for `O=c1c2cc(-c3ccccc3)nn2ccn1Cc1noc(CN2CCCC2)n1`: 646 s.
In turn, `CCN1CCCn2cc(S(=O)(=O)Nc3ccc(Cl)cc3F)cc2C1=O` yielded an RP-LC retention time of 763 s.
To `COc1ccc(OC)c(CNC(=O)CCC(=O)N2CCCn3nc(-c4cccn4C)cc32)c1` belongs 755 s; to `Cc1ccc(CNC(=O)C2CCN(Cc3cn(C)c4ccc(Cl)cc34)CC2)cc1`, 733 s; to `Cc1nc(-c2cc(S(=O)(=O)NCc3ccc(F)cc3F)c(C)s2)cs1`, 956 s.
To `Nc1ccc2c(c1)nnn2-c1ccccc1` belongs 708 s; to `Cc1cc(F)ccc1NS(=O)(=O)c1c[nH]c2ncccc12`, 735 s; to `CCc1cccc(NC(=O)c2cc(CC)n3nccc3n2)c1`, 1150 s.
The same measure for `CC1(C)C(=O)N(CC(=O)Nc2ccccc2Cl)c2ccccc21`: 912 s; for `Cc1ccc(C)c(N2CCN(C(=O)C3CCCN(C(=O)c4[nH]c(C)cc4C)C3)CC2)c1` (stereo unspecified): 1010 s.
Compound `Cc1nc2cc(N3CC(C(=O)NCc4ccc(F)c(Cl)c4)CC3=O)ccc2o1` (stereo unspecified) yielded an RP-LC retention time of 750 s.
`CC(C(=O)NCCCN1CCOCC1)n1c(=O)c(C(F)(F)F)nc2ccccc21` (stereo unspecified) registered an RP-LC retention time of 644 s.
`CNC(=O)N1CCC(N2C(=O)C3(CCCCC3)C2c2ccccc2)CC1` (stereo unspecified) displayed an RP-LC retention time of 783 s.
To `O=C(NCCc1ccccc1)C(=O)NCC1COc2ccccc2O1` (stereo unspecified) belongs 960 s.
`c1ccc(-c2nc(C3CC3)no2)c(OC2CNC2)c1` returned an RP-LC retention time of 614 s.
To `Cc1ccc(-c2csc(NC(=O)CSc3nc4c(cc3C#N)CCC4)n2)cc1` belongs 1210 s; to `CCC(C)NC(=O)Cn1cccc(-c2nc(-c3ccc(Br)cc3)no2)c1=O` (stereo unspecified), 870 s; to `COc1ccc(NC(=O)C2CCN(C(=O)c3nnc(C(=O)Nc4ccc(F)cc4)s3)CC2)cc1`, 903 s.
The same measure for `CCOc1ccc(-c2noc(Cc3nc(-c4cccc(OC)c4)cs3)n2)cc1`: 1230 s; for `Cc1[nH]c(C)c(S(=O)(=O)N2CCC(C(=O)NC3CCCCC3)CC2)c1C(=O)N1CCCC1`: 676 s; for `Cc1cccc(NS(=O)(=O)c2cc3n(c2)CCN(C(C)C)C3=O)c1C`: 816 s.
Compound `CC(C)(C)n1nnnc1C1CC2(CCOCC2)C(=O)N1Cc1ccc(F)cc1` (stereo unspecified) showed an RP-LC retention time of 798 s.
To `Cc1cccc(CN2CCCn3nc(C(=O)NCCc4cccs4)cc3C2=O)c1` belongs 820 s; to `CCOC(=O)C1=C(C)NC2=C(C(=O)c3ccccc32)C1c1cccc(OC)c1OC` (stereo unspecified), 902 s; to `COc1ccc(-c2noc(-c3nc(C)no3)n2)c(OC)c1`, 888 s.
Take `COCc1nc2c(NC(=O)C(C)C)cccn2n1`: the RP-LC retention time came out at 653 s.
The compound `CCCn1c(=O)sc2cc(S(=O)(=O)N3CCC(C(=O)N4CCN(CC)CC4)CC3)ccc21` registered an RP-LC retention time of 640 s.
The same measure for `Cn1ccc2cc(S(=O)(=O)N3CCCC(C(=O)N4CCN(c5ccccn5)CC4)C3)ccc21` (stereo unspecified): 663 s; for `CC(C)N1CCC(CC(=O)N2CCc3c(c(-c4nc(-c5ccccc5)no4)nn3C)C2)CC1`: 654 s.
The same measure for `CCOc1ccc(NC(=O)N2CCC(n3cnc4cccnc43)CC2)cc1`: 642 s; for `Cc1ccc2c(=O)c3c([nH]c2c1C)CCN(CC(=O)Nc1cccc(Cl)c1C)C3`: 661 s.
The same measure for `O=S(=O)(Cc1ccccc1)N1CCCC(c2nnnn2-c2ccccc2)C1` (stereo unspecified): 905 s; for `CCC(Oc1ccc(=O)n(-c2ccc(F)cc2)n1)C(=O)NCCCOC` (stereo unspecified): 677 s.
As to `COCC(=O)N(C)CCc1noc(-c2ccc(C(=O)N3CCCC3)cc2)n1`, the RP-LC retention time turned out to be 626 s.
The same measure for `Cc1ccc(S(=O)(=O)c2cnc(N3CCN(C4CCCCC4)CC3)nc2N)cc1C`: 718 s; for `O=C(Cc1ccc(Cl)cc1)Nc1ccsc1-c1nnc(C2CC2)o1`: 1190 s.
`Cc1nc2cc(N3CCCC(C(=O)Nc4ccc5c(c4)OCCO5)C3)cnc2nc1C` (stereo unspecified) came in with an RP-LC retention time of 711 s.
To `COc1ccc2nc(C(=O)NCc3ccc(Br)cc3)cn2n1` belongs 879 s.
To `CC1CN(CC(=O)N2CCN(c3ncccn3)CC2)c2ccccc2S1` (stereo unspecified) belongs 918 s; to `Cc1ccc2cc(CCC(=O)NCc3ccncc3)c(=O)[nH]c2c1`, 570 s; to `CCCN1C(=O)COc2ccc(-c3csc(NC(=O)c4ccc(C)cc4)n3)cc21`, 1080 s.
In the case of `CCOc1ncccc1C(=O)N1CCN(c2ccc(-c3ccc(OC)c(OC)c3)nn2)CC1`, the RP-LC retention time is 606 s.
To `COCCNC(=O)C1CCN(c2nc3ccc(-c4ccccc4F)nc3s2)CC1` belongs 827 s; to `CCOC(=O)Nc1c2ccccc2nc2ccccc12`, 660 s; to `Cc1nc(C)c(C(=O)N2CCCC2c2nc(CCOCC3CC3)no2)s1` (stereo unspecified), 732 s.
The same measure for `CCCCn1c(=O)c2c(nc3n2CCCCN3c2ccc(OCC)cc2)n(C)c1=O`: 1050 s.
The same measure for `COc1ccc(CCNC(=O)Cn2c(=O)n(CC3CCCO3)c(=O)c3ccccc32)cc1OC` (stereo unspecified): 732 s; for `COc1ccc(NC(=O)COc2ccc(-c3nnc4n3CCCC4)cc2)c(OC)c1`: 684 s.
`N#Cc1nnn(-c2ccc(Cl)cc2)c1N`: the RP-LC retention time came to 816 s.
The same measure for `Cc1ccc(-c2nc3ccc(C)cn3c2Nc2ccc3c(c2)OCO3)cc1`: 725 s.
`COc1ccc(C)cc1NC(=O)Cn1nc(N2CCCC(C)C2)c2ccccc2c1=O` (stereo unspecified) had an RP-LC retention time of 1260 s.
The same measure for `Cc1nc(C)c(-c2nnc(NC(=O)NCc3cccs3)o2)s1`: 672 s; for `CCCCNC(=O)C1CCCN(c2cc(=O)n(C)c(=O)n2C)C1` (stereo unspecified): 641 s; for `O=C(Cn1nc2ccc(C(=O)NCc3ccccc3)cn2c1=O)NC1CCCC1`: 702 s.
To `CCS(=O)(=O)N1CC(=O)N(c2cccc(F)c2)C(C)(C(=O)NC2CCCCC2)C1` (stereo unspecified) belongs 817 s; to `O=C(NCc1ccccc1)C1CCN(C(=O)c2ncn3c2COC(c2ccccc2)C3)CC1` (stereo unspecified), 760 s; to `Cc1ccc(-n2cc(C(=O)O)nn2)c(F)c1`, 705 s.
Consider `COc1cc2c(cc1OC)C(=O)Cc1ccc3c(c1CN(C)CC2)OCO3`, for which the RP-LC retention time was 672 s.
The same measure for `COc1cc(NC(=O)CSc2nccc(N3CCN(c4cc(C)ccc4C)CC3)n2)cc(OC)c1`: 673 s; for `CC1CCN(CC2CCCCCN2C(=O)Nc2ccc3c(c2)OCCO3)CC1` (stereo unspecified): 684 s.
To `Cc1ccc(-c2nnc(Cc3nc(-c4ccccc4F)no3)o2)cc1C` belongs 1040 s.
In turn, `Cc1noc2nc(CCC(=O)N3CCc4ccccc43)nc(N3CCCCCC3)c12` gave an RP-LC retention time of 1060 s.
To `CCOC(=O)c1nc(N(CC)c2ccc(CC)cc2)c2ccccc2n1` belongs 1130 s; to `CCc1ccc(NS(=O)(=O)c2cc3n(c2)CCCN(C)C3=O)cc1`, 739 s.
`CCOc1ccc(OCC)c(NC(=O)C(=O)c2ccc[nH]2)c1`: the RP-LC retention time stood at 1070 s.
The same measure for `COc1ccc(NC(=O)NCC23CCC=C2N(C)C(=O)CC3)cc1` (stereo unspecified): 745 s; for `COc1ccc(S(=O)(=O)N2CCCC(C(=O)Nc3cc(Cl)ccc3OC)C2)cc1Cl` (stereo unspecified): 1110 s; for `O=C(Nc1ccccc1)c1cc(C2CC2)n2nccc2n1`: 957 s.
For `COc1cccc(-c2nnc(Cc3nc(-c4ccc(F)cc4)no3)o2)c1`, the RP-LC retention time is 1020 s.
To `COc1ccc(N2CCN(c3cc(SCC(=O)Nc4ccccc4Cl)ncn3)CC2)cc1` belongs 1110 s; to `O=C(NCCn1ncc2c(=O)n(Cc3cccc(Cl)c3)cnc21)c1cc2ccccc2o1`, 780 s; to `O=C(CCNc1c(-c2ccccc2)nc2cnccn12)NCc1ccc(F)cc1`, 687 s.
To `CN1c2cc(F)ccc2C(=O)NC12CCN(C(=O)Cc1ccccc1Cl)CC2` belongs 783 s.
The same measure for `Cc1ncsc1CN1CCC2(CC1)c1[nH]c3ccccc3c1CCN2C`: 538 s; for `CCCNC(=O)c1nnc(-c2ccc(S(=O)(=O)N3CCCC3)cc2)o1`: 824 s; for `CCNc1cc(N2CCC(CCC(=O)NCc3cccs3)CC2)ncn1`: 627 s.
Turning to `CCOc1cccc(-c2noc(Cn3nc(-c4cccc(OC)c4)ccc3=O)n2)c1`, the RP-LC retention time is 1090 s.
The same measure for `COc1ccc2c(c1)C1(CCN(C(=O)Nc3ccc(OC)c(OC)c3)C1)C(=O)N2` (stereo unspecified): 671 s.
